19 compounds from publication PMC10982501, “Synthesis and biological evaluation of novel benzothiazole derivatives as potential anticancer and antiinflammatory agents” (Frontiers in Chemistry, 2024) can be followed below.

Data set [1] deals with H1299 cells. As to the kind of experiment: MTT cell proliferation assay, H1299. Format: cell-based, human. The following applies: for inhibition at 10 µM / IC50: Homo sapiens, NCI-H1299, 48 h; for inhibition at 10 µM: read-out: H1299 cells inhibition rate; for inhibition at 10 µM / H1299 cells inhibition rate: 10 μM; for H1299 cells inhibition rate: 48 h; for IC50: read-out: IC50 (mean ± SD) H1299. The protocol:
(§1) Beas-2b, A431, A549 and H1299 cells were cultured in 96-well plates (5 × 10^3 cells/well) for 16 h, respectively. Subsequently, positive compound 4i and 25 newly synthesized compounds were added at a final concentration of 10 μM or gradient concentrations (0.01, 0.1, 0.5, 1, 5 and 10 μM), co-incubated with the cells for 48 h. MTT (M8180, Solarbio) solutions (5 mg/mL) were then added and incubated for 4 h in the dark. Then, formazan crystals were dissolved with DMSO (D8371, Solarbio), followed by shaking on a shaker (DRAGONLAB, China) for 10 min. Finally, absorbance at 490 nm wavelength for each well was measured with Microplate reader (Molecular Devices, United States) ([Tang et al., 2020]; [Lee et al., 2021]). The results are expressed as mean ± SD from three independent experiments. Cells inhibition rates or IC50 values were calculated using GraphPad Prism 9.5.0.

In data set [2] the test system is A549 cells. As to the kind of experiment: MTT cell proliferation assay, A549. Format: cell-based, human. The following applies: for inhibition at 10 µM / IC50: Homo sapiens, A549, 48 h; for inhibition at 10 µM: read-out: A549 cells inhibition rate; for inhibition at 10 µM / A549 cells inhibition rate: 10 μM; for A549 cells inhibition rate: 48 h; for IC50: read-out: IC50 (mean ± SD) A549. The protocol:
as §1

Data set [3] can be described thus: Oil-water partition coefficient (log P) measurement. It is filed as physicochemical. To be noted: n-octanol/water, room temperature. The protocol:
The partition coefficient between n-octanol and water (log Po/w) is the classical descriptor for Lipophilicity ([Daina et al., 2017]). The test methodology followed previously published protocols ([Wang et al., 2021]). At room temperature, two large Erlenmeyer flasks were taken and filled with n-octanol and water, respectively. The flasks were placed in a constant temperature shaker at 150 rpm for 24 h to saturate the solvents. The mixtures were then transferred to separating funnels under normal pressure to obtain water-saturated n-octanol and n-octanol-saturated water for subsequent use. The target compound (2 mg) was accurately weighed and placed in a 2 mL brown volumetric flask. Anhydrous methanol was added to ultrasonically dissolve the compound, and the mixture was diluted to volume and thoroughly shaken to prepare a 1 mg/mL stock solution. The stock solution was further diluted to obtain 1, 1.5, 2, 2.5, 5 and 10 μg/mL reference solutions for construction of a standard curve using a UV-visible spectrophotometer. An excess amount of the analyte was dissolved in water-saturated n-octanol, and the mixture was shaken at 150 rpm for 24 h at constant temperature to obtain a saturated solution. The saturated solution was allowed to stand, centrifuged, and 1 mL of the supernatant was transferred to a 4 mL centrifuge tube. N-octanol saturated water (1 mL) was added, and the mixture was shaken at 150 rpm for 24 h at constant temperature. After standing for 8 h, the mixture was centrifuged. Appropriate amounts of the n-octanol phase before and after equilibration were diluted with methanol, and concentrations were determined from the standard curve to obtain C0 and C1. The concentration in the n-octanol saturated aqueous phase, Cw, was calculated as Cw = C0 - C1. Thus, log Po/w = […].

In data set [4] the test system is A431 cells. As to the kind of experiment: MTT cell proliferation assay, A431. The following applies: for inhibition at 10 µM / IC50: Homo sapiens, A-431, 48 h; for inhibition at 10 µM: read-out: A431 cells inhibition rate; for inhibition at 10 µM / A431 cells inhibition rate: 10 μM; for A431 cells inhibition rate: 48 h; for IC50: read-out: IC50 (mean ± SD) A431. Format: cell-based, human. As for the experimental part:
as §1

The test system of data set [5] is Beas-2b cells. As to the kind of experiment: MTT cell proliferation and toxicity assay, Beas-2b. It is filed as cell-based, human. To be noted: 48 h; for inhibition at 10 µM: Homo sapiens, BEAS-2B, read-out: Beas-2b cells inhibition rate. As for the experimental part:
as §1

Turning to `O=[N+]([O-])c1ccccc1COc1ccccc1-c1nc2ccccc2s1` [A2, 2-(2-((2-nitrobenzyl)oxy)phenyl)benzo[d]thiazole], the inhibition at 10 µM was 42.4 ± 1.26% in data set [1], 33.1 ± 2.34% in data set [2], 35.8 ± 2.03% in data set [4] and 17.3 ± 3.26% in data set [5]. In data set [3], this compound gave a logP of 3.51 ± 0.19.

On to `O=C1c2ccccc2C(=O)N1CCCOc1ccccc1-c1nc2ccccc2s1` [A3, 2-(3-(2-(benzo[d]thiazol-2-yl)phenoxy)propyl)isoindoline-1,3-dione], for which the inhibition at 10 µM in data set [1] amounted to 30.9 ± 0.77%; in data set [2], 28.5 ± 2.21%; in data set [4], 34.2 ± 1.15%; in data set [5] it was 5.25 ± 0.39%. This compound had a lipophilicity (logP) in data set [3] of 3.63 ± 0.16.

As for `O=[N+]([O-])c1ccc(COc2ccccc2-c2nc3ccccc3s2)cc1` [A4, 2-(2-((4-nitrobenzyl)oxy)phenyl)benzo[d]thiazole], the inhibition at 10 µM came to 39.4 ± 1.2% in data set [1], 33.3 ± 1.36% in data set [2], 35.8 ± 1.02% in data set [4] and 10.3 ± 0.64% in data set [5]. Moreover, in data set [3], the logP stood at 3.74 ± 0.35.

In the case of `Clc1cccc(COc2ccccc2-c2nc3ccccc3s2)c1` [A5, 2-(2-((3-chlorobenzyl)oxy)phenyl)benzo[d]thiazol], the inhibition at 10 µM in data set [1] was 35.3 ± 2.24%; in data set [2], 47.6 ± 1.24%; in data set [4], 45.7 ± 0.87%; in data set [5] it was 18.2 ± 2.23%. In addition, in data set [3], the logP came to 4.51 ± 0.24.

With `Cc1ccc(COc2ccccc2-c2nc3ccccc3s2)cc1` [A6, 2-(2-((4-methylbenzyl)oxy)phenyl)benzo[d]thiazole], the inhibition at 10 µM in data set [1] stood at 33.9 ± 0.68%; in data set [2] it was 20.7 ± 2.31%; in data set [4], 27.7 ± 1.62%; in data set [5] it was 15.1 ± 3.28%. For the same compound, the logP in data set [3] turned out to be 4.72 ± 0.28.

With `c1ccc(COc2ccccc2-c2nc3ccccc3s2)cc1` [A7, 2-(2-(benzyloxy)phenyl)benzo[d]thiazole], the inhibition at 10 µM in data set [1] came out at 26.5 ± 1.11%; in data set [2], 12.2 ± 3.42%; in data set [4], 15.3 ± 2.21%; in data set [5] it was 11.4 ± 2.65%. Also, in data set [3], the logP turned out to be 3.95 ± 0.15.

As to `N#Cc1ccc(COc2ccccc2-c2nc3ccccc3s2)cc1` [A8, 4-((2-(benzo[d]thiazol-2-yl)phenoxy)methyl)benzonitrile], the inhibition at 10 µM in data set [1] came to 37.3 ± 2.3%; in data set [2] it was 24.4 ± 1.22%; in data set [4], 28.6 ± 1.24%; in data set [5] it was 14.2 ± 3.65%. The same compound gave a log partition coefficient (logP) in data set [3] of 3.44 ± 0.22.

Regarding `Fc1ccc2nc(NCCc3ccccc3)sc2c1` [B1, 6-fluoro-N-phenethylbenzo[d]thiazol-2-amine], the inhibition at 10 µM was found to be 26.3 ± 0.91% in data set [1], 18.3 ± 0.93% in data set [2], 21.1 ± 2.03% in data set [4] and 23.1 ± 1.52% in data set [5]. Also, the logP in data set [3] is 3.47 ± 0.27.

Regarding `Fc1ccc2nc(NCc3c(Cl)cccc3Cl)sc2c1` [B2, N-(2,6-dichlorobenzyl)-6-fluorobenzo[d]thiazol-2-amine], the inhibition at 10 µM in data set [1] came out at 31.3 ± 1.14%; in data set [2] it was 30.2 ± 2.13%; in data set [4] it was 27.5 ± 2.42%; in data set [5], 18.6 ± 1.67%. In data set [3], this compound displayed a lipophilicity (logP) of 4.25 ± 0.16.

Regarding `COc1ccc(CNc2nc3ccc(F)cc3s2)cc1OC` [B3, N-(3,4-dimethoxybenzyl)-6-fluorobenzo[d]thiazol-2-amine], the inhibition at 10 µM in data set [1] is 44.6 ± 1.75%; in data set [2] it was 22.4 ± 1.34%; in data set [4], 32.4 ± 2.92%; in data set [5], 25.4 ± 2.01%. Also, the logP in data set [3] is 2.56 ± 0.12.

With `O=[N+]([O-])c1ccc(CNc2nc3ccc(F)cc3s2)cc1` [B4, 6-fluoro-N-(4-nitrobenzyl)benzo[d]thiazol-2-amine], the inhibition at 10 µM in data set [1] worked out at 25 ± 1.62%; in data set [2], 19.6 ± 1.32%; in data set [4], 24.3 ± 1.87%; in data set [5] it was 21.4 ± 2.21%. Moreover, the lipophilicity (logP) in data set [3] came to 2.67 ± 0.25.

For `Fc1cccc(CNc2nc3ccc(Cl)cc3s2)c1` [B5, 6-chloro-N-(3-fluorobenzyl)benzo[d]thiazol-2-amine], in data set [1], the “H1299 cells inhibition rate” value is given as 51.34 ± 3.03%, the inhibition at 10 µM was greater than 50% and the IC50 turned out to be 9.26 ± 1.34 µM. In addition, in data set [2], the “A549 cells inhibition rate” value was determined as 58.64 ± 1.01%, the inhibition at 10 µM is greater than 50% and the concentration for half-maximal inhibition (IC50) was 5.44 ± 1 µM. Besides, in data set [3], the lipophilicity (logP) was determined as 3.58 ± 0.11. In data set [4], the “A431 cells inhibition rate” value is reported as 59.69 ± 3.62%, the inhibition at 10 µM was greater than 50% and the IC50 was determined as 10.8 ± 0.56 µM. Also, the inhibition at 10 µM in data set [5] worked out at 20.6 ± 1.85%.

Regarding `COc1cc(CNc2nc3ccc(Cl)cc3s2)cc(OC)c1` [B6, 6-chloro-N-(3,5-dimethoxybenzyl)benzo[d]thiazol-2-amine], the inhibition at 10 µM came to 32.8 ± 0.74% in data set [1], 35.2 ± 2.86% in data set [2], 43.4 ± 1.61% in data set [4] and 20.6 ± 1.32% in data set [5]. This compound registered a logP in data set [3] of 3.36 ± 0.18.

As for `Clc1ccc2nc(NCc3ccccc3)sc2c1` [B8, N-benzyl-6-chlorobenzo[d]thiazol-2-amine], in data set [1], the “H1299 cells inhibition rate” value amounted to 55.22 ± 2.49%, the inhibition at 10 µM was greater than 50% and the IC50 amounted to 6.69 ± 0.54 µM. In data set [2], the “A549 cells inhibition rate” value is 65.75 ± 0.96%, the inhibition at 10 µM was greater than 50% and the IC50 was found to be 6.25 ± 0.99 µM. In data set [3], this compound yielded a log partition coefficient (logP) of 3.56 ± 0.16. Moreover, in data set [4], the “A431 cells inhibition rate” value is 57.43 ± 3.64%, the inhibition at 10 µM was greater than 50% and the IC50 was 5.36 ± 1 µM. The inhibition at 10 µM in data set [5] turned out to be 18.1 ± 3.22%.

As for `O=C(Nc1nc2ccc(F)cc2s1)c1ccccc1` [C1, N-(6-fluorobenzo[d]thiazol-2-yl)benzamide], the inhibition at 10 µM in data set [1] came to 28.3 ± 1.25%; in data set [2], 19.3 ± 1.07%; in data set [4], 17.5 ± 1.35%; in data set [5] it was 16.3 ± 1.82%. The lipophilicity (logP) in data set [3] worked out at 2.56 ± 0.14.

As to `O=C(Nc1nc2ccc(F)cc2s1)c1c(Cl)cccc1Cl` [C2, 2,6-dichloro-N-(6-fluorobenzo[d]thiazol-2-yl) benzamide], the “H1299 cells inhibition rate” value in data set [1] was 6.80 ± 0.22%. For the same compound, the “A549 cells inhibition rate” value in data set [2] came out at 0.27 ± 0.12%. In data set [3], the lipophilicity (log P) is 2.93 ± 0.11. Also, the “A431 cells inhibition rate” value in data set [4] is recorded as 5.61 ± 0.26%. Besides, the “Beas-2b cells inhibition rate” value in data set [5] (10 μM) was determined as 12.82 ± 1.76%.

As for `COc1ccc(C(=O)Nc2nc3ccc(F)cc3s2)cc1OC` [C3, N-(6-fluorobenzo[d]thiazol-2-yl)-3,4-dimethoxybenzamide], the inhibition at 10 µM in data set [1] was determined as 18 ± 2.52%; in data set [2], 4.38 ± 0.35%; in data set [4], 12.3 ± 1.51%; in data set [5] it was 21.3 ± 1.62%. The compound also gave a logP in data set [3] of 2.49 ± 0.39.

Regarding `O=C(Nc1nc2ccc(F)cc2s1)c1ccc([N+](=O)[O-])cc1` [C4, N-(6-fluorobenzo[d]thiazol-2-yl)-4-nitrobenzamide], the inhibition at 10 µM in data set [1] was 45.2 ± 0.55%; in data set [2] it was 35.3 ± 1.82%; in data set [4] it was 43.1 ± 1.45%; in data set [5], 13.4 ± 1.65%. Further, in data set [3], the logP amounted to 3.06 ± 0.23.

Consider `COc1ccc(C(=O)Nc2nc3ccc(Cl)cc3s2)cc1` [C5, N-(6-chlorobenzo[d]thiazol-2-yl)-4-methoxybenzamide], for which, in data set [1], the “H1299 cells inhibition rate” value worked out at 51.98 ± 0.24%, the inhibition at 10 µM was greater than 50% and the half-maximal inhibitory concentration (IC50) was 8.94 ± 1.21 µM. Moreover, in data set [2], the “A549 cells inhibition rate” value is 56.33 ± 2.96%, the inhibition at 10 µM is greater than 50% and the concentration for half-maximal inhibition (IC50) amounted to 9.82 ± 0.98 µM. Besides, the logP in data set [3] was found to be 2.87 ± 0.15. Also, in data set [4], the “A431 cells inhibition rate” value turned out to be 55.67 ± 2.34%, the inhibition at 10 µM is greater than 50% and the IC50 turned out to be 4.35 ± 0.9 µM. Besides, the inhibition at 10 µM in data set [5] was 17.2 ± 1.24%.
